Positions of bridges follow the written chain, without caps; N, C: chain ends. Non-standard residues stand in square brackets, D forms with d. Residues, ends and D or L forms follow the SMILES beside them. Ala(cPr) = N[C@@H](CC1CC1)C(=O)O; Hyp = O=C(O)[C@@H]1C[C@@H](O)CN1; tBuAla = CC(C)(C)C[C@H](N)C(=O)O; Cha = N[C@@H](CC1CCCCC1)C(=O)O; NMeNle = CCCC[C@H](NC)C(=O)O; NMeA = CN[C@@H](C)C(=O)O; Dab = NCC[C@H](N)C(=O)O; Abu = CC[C@H](N)C(=O)O; Dap = NC[C@H](N)C(=O)O
Legend:
Human PD-L1/PD-1 = target: T1, Human PD-L1/PD-1 (Homo sapiens, UniProt Q9NZQ7); assay: HTRF PD-1-Ig/PD-L1-His binding assay (human PD-L1); settings: cluster symbol; read-out: HTRF IC50 cluster
T1 construct: made in house; host or cells: HEK293T
Procedure, shortened: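 Soluble Fc-fused PD-1 and His-tagged PD-L1 (truncated before the transmembrane region) were combined in dPBS with 0.1% (w/v) BSA and 0.05% (v/v) Tween-20. Binding was read by HTRF using europium cryptate anti-Ig antibody (1 nM final) and APC anti-His antibody (20 nM final).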

[1] = target: T2, LK35.2-hPD-L1 cells / PE-labeled PD-1-Ig (Homo sapiens, UniProt Q9NZQ7); assay: LK35.2-hPD-L1 cell binding high-content screening assay; type: cell-based; settings: cell binding assay, cell line not given; cluster symbol; read-out: CBA IC50 cluster
T2 construct: expressed in transfected cells; host or cells: LK35.2 mouse B cell line
Procedure, shortened: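 Mouse LK35.2 B cells stably overexpressing human PD-L1 were cultured overnight in RPMI with 10% FCS, then given compound and PE-labeled human PD-1-Ig (1 nM final) for 1 h at 37 °C. After three dPBS washes, bound fluorescence was quantified by high-content imaging.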

T2 sequence (Q9NZQ7 19-290): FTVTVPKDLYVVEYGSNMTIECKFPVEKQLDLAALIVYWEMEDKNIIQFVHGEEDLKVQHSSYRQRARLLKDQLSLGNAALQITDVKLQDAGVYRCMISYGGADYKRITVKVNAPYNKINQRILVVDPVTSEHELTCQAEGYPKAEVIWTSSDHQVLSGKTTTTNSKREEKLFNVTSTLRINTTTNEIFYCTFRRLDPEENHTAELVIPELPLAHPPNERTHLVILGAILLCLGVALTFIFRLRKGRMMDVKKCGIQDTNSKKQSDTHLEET
T1 sequence (Q9NZQ7 with tags, fused parts or gaps): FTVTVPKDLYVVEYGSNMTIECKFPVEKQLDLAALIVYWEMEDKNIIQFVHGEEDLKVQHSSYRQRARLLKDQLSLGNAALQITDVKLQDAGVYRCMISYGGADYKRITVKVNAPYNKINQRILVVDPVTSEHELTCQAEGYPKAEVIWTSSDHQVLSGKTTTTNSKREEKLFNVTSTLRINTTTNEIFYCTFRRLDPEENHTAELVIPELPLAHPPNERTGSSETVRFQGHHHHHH

| Compound | IC50 (Human PD-L1/PD-1) | IC50 [1] |
| --- | --- | --- |
| CCCC[C@H]1C(=O)N(C)[C@@H](CCCC)C(=O)N[C@@H](CCCNC(=N)N)C(=O)N[C@H](C(=O)NCC(=O)O)CSCC(=O)N[C@@H](Cc2ccc(O)cc2)C(=O)N(C)[C@@H](C)C(=O)N[C@@H](CC(N)=O)C(=O)N2CCC[C@H]2C(=O)N[C@@H](Cc2cnc[nH]2)C(=O)N[C@@H](CC(C)C)C(=O)N2C[C@H](O)C[C@H]2C(=O)N[C@@H](Cc2c[nH]c3ccccc23)C(=O)N[C@@H](CO)C(=O)N[C@@H](Cc2c[nH]c3ccccc23)C(=O)N1C [Example 5068] | 6.76 to 30.3 nM | 0.158 to 4.71 nM |
| CCCC[C@H]1C(=O)N(C)[C@@H](CCCC)C(=O)N[C@@H](CC(C)(C)C)C(=O)N[C@H](C(=O)NCC(N)=O)CSCC(=O)N[C@@H](Cc2ccc(O)cc2)C(=O)N(C)[C@@H](C)C(=O)N[C@@H](CC(N)=O)C(=O)N2CCC[C@H]2C(=O)N[C@@H](Cc2c[nH]cn2)C(=O)N[C@@H](CCC(N)=O)C(=O)N2C[C@H](O)C[C@H]2C(=O)N[C@@H](Cc2c[nH]c3ccccc23)C(=O)N[C@@H](CO)C(=O)N[C@@H](Cc2c[nH]c3ccccc23)C(=O)N1C [Example 5076] ({CH2CO}-Y[NMeA]NPHQ[Hyp]WSW[NMeNle][NMeNle][tBuAla]CG-NH2; thioether N-14) | 6.76 to 30.3 nM | 4.78 to 72.9 nM |
| CCCC[C@H]1C(=O)N(C)[C@@H](CCCC)C(=O)N[C@@H](CC2CCCCC2)C(=O)N[C@H](C(=O)NCC(N)=O)CSCC(=O)N[C@@H](Cc2ccc(O)cc2)C(=O)N(C)[C@@H](C)C(=O)N[C@@H](CC(N)=O)C(=O)N2CCC[C@H]2C(=O)N[C@@H](Cc2c[nH]cn2)C(=O)N[C@@H](CCC(N)=O)C(=O)N2C[C@H](O)C[C@H]2C(=O)N[C@@H](Cc2c[nH]c3ccccc23)C(=O)N[C@@H](CO)C(=O)N[C@@H](Cc2c[nH]c3ccccc23)C(=O)N1C [Example 5077] ({CH2CO}-Y[NMeA]NPHQ[Hyp]WSW[NMeNle][NMeNle][Cha]CG-NH2; thioether N-14) | 6.76 to 30.3 nM | 0.158 to 4.71 nM |
| CCCC[C@H]1C(=O)N(C)[C@@H](CCCC)C(=O)N[C@@H](CC2CC2)C(=O)N[C@H](C(=O)NCC(N)=O)CSCC(=O)N[C@@H](Cc2ccc(O)cc2)C(=O)N(C)[C@@H](C)C(=O)N[C@@H](CC(N)=O)C(=O)N2CCC[C@H]2C(=O)N[C@@H](Cc2c[nH]cn2)C(=O)N[C@@H](CCC(N)=O)C(=O)N2C[C@H](O)C[C@H]2C(=O)N[C@@H](Cc2c[nH]c3ccccc23)C(=O)N[C@@H](CO)C(=O)N[C@@H](Cc2c[nH]c3ccccc23)C(=O)N1C [Example 5081] ({CH2CO}-Y[NMeA]NPHQ[Hyp]WSW[NMeNle][NMeNle][Ala(cPr)]CG-NH2; thioether N-14) | 0.385 to 6.74 nM | 4.78 to 72.9 nM |
| CCCC[C@H]1C(=O)N(C)[C@@H](CCCC)C(=O)N[C@@H](CC(C)C)C(=O)N[C@H](C(=O)NCC(N)=O)CSCC(=O)N[C@@H](Cc2ccc(O)cc2)C(=O)N(C)[C@@H](C)C(=O)N[C@@H](CC(N)=O)C(=O)N2CCC[C@H]2C(=O)N[C@@H](CN)C(=O)N[C@@H](CC2CCCCC2)C(=O)N2C[C@H](O)C[C@H]2C(=O)N[C@@H](Cc2c[nH]c3ccccc23)C(=O)N[C@@H](CO)C(=O)N[C@@H](Cc2c[nH]c3ccccc23)C(=O)N1C [Example 5082] ({CH2CO}-Y[NMeA]NP[Dap][Cha][Hyp]WSW[NMeNle][NMeNle]LCG-NH2; thioether N-14) | 0.385 to 6.74 nM | 0.158 to 4.71 nM |
| CCCC[C@H]1C(=O)N(C)[C@@H](CCCC)C(=O)N[C@@H](CC(C)C)C(=O)N[C@H](C(=O)NCC(N)=O)CSCC(=O)N[C@@H](Cc2ccc(O)cc2)C(=O)N(C)[C@@H](C)C(=O)N[C@@H](CC(N)=O)C(=O)N2CCC[C@H]2C(=O)N[C@@H](CN)C(=O)N[C@@H](CC(C)(C)C)C(=O)N2C[C@H](O)C[C@H]2C(=O)N[C@@H](Cc2c[nH]c3ccccc23)C(=O)N[C@@H](CO)C(=O)N[C@@H](Cc2c[nH]c3ccccc23)C(=O)N1C [Example 5083] ({CH2CO}-Y[NMeA]NP[Dap][tBuAla][Hyp]WSW[NMeNle][NMeNle]LCG-NH2; thioether N-14) | 0.385 to 6.74 nM | 0.158 to 4.71 nM |

The next lines start with the values.

| IC50 (Human PD-L1/PD-1) | IC50 [1] | Compound |
| --- | --- | --- |
| 0.385 to 6.74 nM | 0.158 to 4.71 nM | CCCC[C@H]1C(=O)N(C)[C@@H](CCCC)C(=O)N[C@@H](CC(C)C)C(=O)N[C@H](C(=O)NCC(N)=O)CSCC(=O)N[C@@H](Cc2ccc(O)cc2)C(=O)N(C)[C@@H](C)C(=O)N[C@@H](CC(=O)O)C(=O)N2CCC[C@H]2C(=O)N[C@@H](Cc2cnc[nH]2)C(=O)N[C@@H](CCC(=O)O)C(=O)N2C[C@H](O)C[C@H]2C(=O)N[C@@H](Cc2c[nH]c3ccccc23)C(=O)N[C@@H](CCN)C(=O)N[C@@H](Cc2c[nH]c3ccccc23)C(=O)N1C [Example 5066] ({CH2CO}-Y[NMeA]DPHE[Hyp]W[Dab]W[NMeNle][NMeNle]LCG-NH2; thioether N-14) |
| 0.385 to 6.74 nM | 0.158 to 4.71 nM | CCCC[C@H]1C(=O)N(C)[C@@H](CCCC)C(=O)N[C@@H](CCC(=O)O)C(=O)N[C@H](C(=O)NCC(N)=O)CSCC(=O)N[C@@H](Cc2ccc(O)cc2)C(=O)N(C)[C@@H](C)C(=O)N[C@@H](CC(=O)O)C(=O)N2CCC[C@H]2C(=O)N[C@@H](Cc2cnc[nH]2)C(=O)N[C@@H](CCCCN)C(=O)N2C[C@H](O)C[C@H]2C(=O)N[C@@H](Cc2c[nH]c3ccccc23)C(=O)N[C@@H](CCCCN)C(=O)N[C@@H](Cc2c[nH]c3ccccc23)C(=O)N1C [Example 5069] ({CH2CO}-Y[NMeA]DPHK[Hyp]WKW[NMeNle][NMeNle]ECG-NH2; thioether N-14) |
| 0.385 to 6.74 nM | 0.158 to 4.71 nM | CCCC[C@H]1C(=O)N(C)[C@@H](CCCC)C(=O)N[C@@H](CC(C)C)C(=O)N[C@H](C(=O)NCC(N)=O)CSCC(=O)N[C@@H](Cc2ccc(O)cc2)C(=O)N(C)[C@@H](C)C(=O)N[C@@H](CC(N)=O)C(=O)N2CCC[C@H]2C(=O)N[C@@H](CN)C(=O)N[C@@H](CC(C)C)C(=O)N2C[C@H](O)C[C@H]2C(=O)N[C@@H](Cc2c[nH]c3ccccc23)C(=O)N[C@@H](CO)C(=O)N[C@@H](Cc2c[nH]c3ccccc23)C(=O)N1C [Example 5070] ({CH2CO}-Y[NMeA]NP[Dap]L[Hyp]WSW[NMeNle][NMeNle]LCG-NH2; thioether N-14) |
| 0.385 to 6.74 nM | 0.158 to 4.71 nM | CCCC[C@H]1C(=O)N(C)[C@@H](CCCC)C(=O)N[C@@H](CC(C)C)C(=O)N[C@H](C(=O)NCC(N)=O)CSCC(=O)N[C@@H](Cc2ccc(O)cc2)C(=O)N(C)[C@@H](C)C(=O)N[C@@H](CC(N)=O)C(=O)N2CCC[C@H]2C(=O)N[C@@H](CO)C(=O)N[C@@H](CC(C)C)C(=O)N2C[C@H](O)C[C@H]2C(=O)N[C@@H](Cc2c[nH]c3ccccc23)C(=O)N[C@@H](CCN)C(=O)N[C@@H](Cc2c[nH]c3ccccc23)C(=O)N1C [Example 5073] ({CH2CO}-Y[NMeA]NPSL[Hyp]W[Dab]W[NMeNle][NMeNle]LCG-NH2; thioether N-14) |
| 0.385 to 6.74 nM | 0.158 to 4.71 nM | CCCC[C@H]1C(=O)N(C)[C@@H](CCCC)C(=O)N[C@@H](CC(C)C)C(=O)N[C@H](C(=O)NCC(N)=O)CSCC(=O)N[C@@H](Cc2ccc(O)cc2)C(=O)N(C)[C@@H](C)C(=O)N[C@@H](CC(N)=O)C(=O)N2CCC[C@H]2C(=O)N[C@@H](CO)C(=O)N[C@@H](CCC(=O)O)C(=O)N2C[C@H](O)C[C@H]2C(=O)N[C@@H](Cc2c[nH]c3ccccc23)C(=O)N[C@@H](CCN)C(=O)N[C@@H](Cc2c[nH]c3ccccc23)C(=O)N1C [Example 5074] ({CH2CO}-Y[NMeA]NPSE[Hyp]W[Dab]W[NMeNle][NMeNle]LCG-NH2; thioether N-14) |
| 0.385 to 6.74 nM | 0.158 to 4.71 nM | CCCC[C@H]1C(=O)N(C)[C@@H](CCCC)C(=O)N[C@@H](CC(C)C)C(=O)N[C@H](C(=O)NCC(N)=O)CSCC(=O)N[C@@H](Cc2ccc(O)cc2)C(=O)N(C)[C@@H](C)C(=O)N[C@@H](CC(N)=O)C(=O)N2CCC[C@H]2C(=O)N[C@@H](Cc2c[nH]cn2)C(=O)N[C@@H](CCC(N)=O)C(=O)N2C[C@H](O)C[C@H]2C(=O)N[C@@H](Cc2c[nH]c3ccccc23)C(=O)N[C@@H](CO)C(=O)N[C@@H](Cc2c[nH]c3ccccc23)C(=O)N1C [Example 5075] ({CH2CO}-Y[NMeA]NPHQ[Hyp]WSW[NMeNle][NMeNle]LCG-NH2; thioether N-14) |
| 0.385 to 6.74 nM | 0.158 to 4.71 nM | CCCC[C@H]1C(=O)N(C)[C@@H](CCCC)C(=O)N[C@@H](CC)C(=O)N[C@H](C(=O)NCC(N)=O)CSCC(=O)N[C@@H](Cc2ccc(O)cc2)C(=O)N(C)[C@@H](C)C(=O)N[C@@H](CC(N)=O)C(=O)N2CCC[C@H]2C(=O)N[C@@H](Cc2c[nH]cn2)C(=O)N[C@@H](CCC(N)=O)C(=O)N2C[C@H](O)C[C@H]2C(=O)N[C@@H](Cc2c[nH]c3ccccc23)C(=O)N[C@@H](CO)C(=O)N[C@@H](Cc2c[nH]c3ccccc23)C(=O)N1C [Example 5078] ({CH2CO}-Y[NMeA]NPHQ[Hyp]WSW[NMeNle][NMeNle][Abu]CG-NH2; thioether N-14) |
| 0.385 to 6.74 nM | 4.78 to 72.9 nM | CCCC[C@H]1C(=O)N(C)[C@@H](CCCC)C(=O)N[C@@H](CC(C)C)C(=O)N[C@H](C(=O)NCC(N)=O)CSCC(=O)N[C@@H](Cc2ccc(O)cc2)C(=O)N(C)[C@@H](C)C(=O)N[C@@H](CC(N)=O)C(=O)N2CCC[C@H]2C(=O)N[C@@H](Cc2c[nH]cn2)C(=O)N[C@@H](CCC(N)=O)C(=O)N2CCC[C@H]2C(=O)N[C@@H](Cc2c[nH]c3ccccc23)C(=O)N[C@@H](CO)C(=O)N[C@@H](Cc2c[nH]c3ccccc23)C(=O)N1C [Example 5079] ({CH2CO}-Y[NMeA]NPHQPWSW[NMeNle][NMeNle]LCG-NH2; thioether N-14) |

— patent publication US9850283B2, “Macrocyclic inhibitors of the PD-1/PD-L1 and CD80(B7-1)/PD-L1 protein/protein interactions” (BRISTOL-MYERS SQUIBB COMPANY, priority 2013, dated 2017)
